# Results from patent US20230190774A1, “METHOD OF USING SUBSTRATES OF AKR1Bl/AKR1B10 AS ANTI-CANCER DRUGS” (Beijing Normal University Hong Kong Baptist University …, priority 2015, published 2023).
# Entries after “also recorded” stand apart in the source; their conditions may differ. Where two headings read alike, the source gives them in different places. Where a SMILES comes first, the peptide text is derived from it. The star is where a group is joined. Cbz = O=C(OCc1ccccc1)*
# What was measured:
# AKR1B10 [1] = target: T1, AKR1B10 (Homo sapiens, UniProt O60218); experiment: Enzyme activity assay (NADPH oxidation), purified AKR1B10; assay type: biochemical; details: 20 mM substrate, pH 7.0, 30° C.
# T1 sequence (O60218 whole entry): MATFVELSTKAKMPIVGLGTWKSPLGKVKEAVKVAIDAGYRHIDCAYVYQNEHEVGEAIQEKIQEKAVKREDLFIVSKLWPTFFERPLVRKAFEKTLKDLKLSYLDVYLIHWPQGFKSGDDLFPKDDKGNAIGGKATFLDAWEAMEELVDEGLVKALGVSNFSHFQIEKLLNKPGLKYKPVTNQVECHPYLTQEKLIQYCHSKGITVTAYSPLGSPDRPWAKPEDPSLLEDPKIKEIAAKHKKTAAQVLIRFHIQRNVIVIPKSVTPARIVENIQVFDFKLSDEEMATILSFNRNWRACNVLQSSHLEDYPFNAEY
# Description: Assay of AKR1B1 and AKR1B10 enzymes activities were conducted in 1 ml of the reaction mixture containing 135 mM sodium phosphate buffer (pH 6.2 for AKR1B1 or pH 7.0 for AKR1B10), 0.2 mM NADPH, 0.3 M ammonium sulfate, 2 µg purified protein and 20 mM of their substrate as indicated. The reaction mix was incubated at 30° C. for 30 minutes (min). Protein-free blank controls were included. The decrease of NADPH was monitored by spectrophotometer at 340 nm. Enzyme activity was calculated as the amount of NADPH oxidized/min/mg of protein (Shen Y et al., Chem Biol Interact. 2011, 191(1-3): 192-198).
# AKR1B1 [2] = target: AKR1B1 (Homo sapiens, UniProt P15121); details: ND = no detectable activity or less than 32 nmol/min/mg; cited from earlier work
# [3] = for Death Rate / Death/Total: i.v., n=8
# Description: ICR mice (18-22 g) were acquired from the Laboratory Animal Services Centre, The Chinese University of Hong Kong. These animals were housed in an animal room with 12 h of day and dark cycles, and the temperature maintained at around 25° C. There were 4 male and 4 female in each treatment and control group. They were treated with either diacetyl or glyceraldehyde. Diacetyl and glyceraldehyde were dissolved with saline and administered to the mice by intravenous injection with the amount indicated. […] Mortality was recorded daily for the calculation of […] (LD50). All surviving animals were euthanized with diethyl-ether at the end of the experiment.
# SKOV3 cells = experiment: Cytotoxicity assay (cell survival rate, MTT); assay type: cell-based; details: for Cytotoxicity of AKR1Bs substrate (cell survival rate): substrate alone, 2DG for 72 hours
# Description: (§1) HepG2 cells, SKOV3 cells, HCT116 cells and CaCo2 cells were cultured in DMEM medium, SW480 cells in 1640 medium, and HT29 cells in McCoy’s 5A medium. All cell culture media were supplemented with 10% FBS, 1% PSN, and cells were cultured in a humidified incubator containing 5% CO2 at 37° C. In cytotoxicity assays, cells were seeded at 1 × 10^5 cells/well in 96 well plates with full medium. In GSH assay and Western blot analysis, cells were seeded at 3× 10^6 cells/well in 6 well plates.
# (§2) The AKR1Bs substrates’ cytotoxicity was assessed by cell survival rate using MTT assay. After the cells were treated with the substrates for the length of time indicated, MTT was added to a final concentration of 0.5 mg/ml in each well of a 96-well plate, and the plates were incubated at 37° C. for 4 hour. Then DMSO was added to dissolve the formazan product, the amount of which is proportional to the number of live cells. The absorbance of dissolved dye was measured at 540 nm using an automatic microplate reader.
# HepG2 cells = experiment: Cytotoxicity assay (cell survival rate, MTT); assay type: cell-based; details: for Cytotoxicity of AKR1Bs substrate (cell survival rate): substrate alone, 2DG for 72 hours
# Description: as §1, §2
# CaCo2 cells = experiment: Cytotoxicity assay (cell survival rate, MTT); assay type: cell-based
# Description: as §1, §2
# HCT116 cells = experiment: Cytotoxicity assay (cell survival rate, MTT); assay type: cell-based
# Description: as §1, §2
# HepG2 tumor xenograft = details: 80 mg/kg, tail vein, daily for 21 days
# Description: Six-week-old male BALB/C nude mice were purchased from the Laboratory Animal Unit of the University of Hong Kong. Mice were allowed to acclimate to laboratory conditions for 1 week before cancer cells injection. […] Treatment was initiated when the tumor grew to about 200±100 mm3. […] Mice were randomized and allocated to different groups. They received daily tail vein injection for 3 weeks of one of the following: glyceraldehyde (500 mg/kg body weight); diacetyl (80 mg/kg body weight); or normal saline. Mice were weighted and the sizes of the tumors were measured with calipers every 3 days. Tumor volumes were calculated with the formula: length×width2/2. Animals were humanely killed at the end of the experiment and their tumors were weighed.
# AKR1B10 [4] = target: T1, AKR1B10; details: ND = no detectable activity or less than 32 nmol/min/mg; cited from earlier work
# SW480 cells = experiment: Cytotoxicity assay (cell survival rate, MTT); assay type: cell-based
# Description: as §2, with “HepG2 cells, SKOV3 cells, HCT116 cells and CaCo2 cells were cultured in DMEM medium, SW480 cells in 1640 medium, and HT29 cells in McCoy’s 5A medium. […] In cytotoxicity assays, cells were seeded at 1 × 10^5 cells/well in 96 well plates with full medium. In GSH assay and Western blot analysis, cells were seeded at 3× 10^6 cells/well in 6 well plates. The AKR1Bs” for “The AKR1Bs”
# HT29 cells = experiment: Cytotoxicity assay (cell survival rate, MTT); assay type: cell-based
# Description: as §2, with “HepG2 cells, SKOV3 cells, HCT116 cells and CaCo2 cells were cultured in DMEM medium, SW480 cells in 1640 medium, and HT29 cells in McCoy’s 5A medium. […] In cytotoxicity assays, cells were seeded at 1 × 10^5 cells/well in 96 well plates with full medium. In GSH assay and Western blot analysis, cells were seeded at 3× 10^6 cells/well in 6 well plates. The AKR1Bs” for “The AKR1Bs”
# AKR1B10 [5] = experiment: Western blot of AKR1B10 protein level in treated cells; assay type: cell-based, human
# Description: as §1
# (§3) Cells were lysed on ice with the protein extraction reagent. Total protein (30 µg) per sample were loaded onto 10% SDS-polyacrylamide gels and separated at 75V, and then electrotransferred to polyvinylidene difluoride (PVDF) membranes overnight at 15 V. Membranes were then soaked in 5% nonfat milk in TBS at room temperature for 1 hour and then incubated with rabbit anti-AKR1B1 antibodies (1:3000) or rabbit anti-AKR1B10 antibodies (1:3000) at room temperature for 2 hours. After being washed, the membranes were incubated in HRP-conjugated goat anti-rabbit or goat anti-mouse IgG secondary antibodies (1:5000) for 1 hour at room temperature, followed by washing and incubation with ECL reagents for 1 min. β-actin monoclonal mouse antibodies (1:5000) was used as reference to assess the relative amounts of proteins loaded per lane.
# AKR1B1 [6] = experiment: Western blot of AKR1B1 protein level in treated cells; assay type: cell-based, human
# Description: as §1, §3
# [7] = substrate alone, 2DG for 72 hours
# [8] = pretreated 24 hours before addition of 2DG
# [9] = BSO (0.3 mM) with 1.25/0.625 mM substrate, NAC with 2.5/1.25 mM substrate
# [10] = BSO with 1.25/0.625 mM substrate, NAC with 2.5/1.25 mM substrate
smiles,measurement,setting,value
"CC(=O)C(C)=O [Diacetyl, diacetyl]",Efficiency as substrate of AKR1B10 (rate of NADPH depletion),AKR1B10 [1],better substrate for AKR1B10 than for AKR1B1; also recorded: best substrate
same,"AKR1B1 activity, amount of NADPH (nmol) oxidized per min per mg of protein",AKR1B1 [2],725 nmol/min/mg
same,LD50,"[3]; ICR mice, intravenous injection daily for 14 days",410 mg/kg BW
same,Death Rate,[3]; dose 300 mg/kg BW,0%
same,Death/Total,[3]; dose 300 mg/kg BW,0/8
same,Death Rate,[3]; dose 360 mg/kg BW,37.5%
same,Death/Total,[3]; dose 360 mg/kg BW,⅜
same,Death Rate,[3]; dose 432 mg/kg BW,62.5%
same,Death/Total,[3]; dose 432 mg/kg BW,⅝
same,Death Rate,[3]; dose 518 mg/kg BW,87.5%
same,Death/Total,[3]; dose 518 mg/kg BW,⅞
same,Death Rate,[3]; dose 622 mg/kg BW,100.0%
same,Death/Total,[3]; dose 622 mg/kg BW,8/8
same,Cytotoxicity of AKR1Bs substrate (cell survival rate),SKOV3 cells,dose-dependently and preferentially kill
same,Cytotoxicity of AKR1Bs substrate (cell survival rate),SKOV3 cells; listed as diacetyl,dose dependently and preferentially kill
same,Cytotoxicity of AKR1Bs substrate (cell survival rate),HepG2 cells,dose-dependently and preferentially kill
same,Cytotoxicity of AKR1Bs substrate (cell survival rate),HepG2 cells; listed as diacetyl,dose dependently and preferentially kill
same,Cytotoxicity of AKR1Bs substrate (cell survival rate),CaCo2 cells; [7],dose dependently and preferentially kill
same,Cytotoxicity of AKR1Bs substrate (cell survival rate),HCT116 cells; [7],dose dependently and preferentially kill
same,Tumor volume,HepG2 tumor xenograft,significantly reduced
same,Tumor weight,HepG2 tumor xenograft,significantly reduced
same,"AKR1B10 activity, amount of NADPH (nmol) oxidized per min per mg of protein",AKR1B10 [4],2329 nmol/min/mg
same,Cytotoxicity of AKR1Bs substrate (cell survival rate),SW480 cells; [7],more resistant
same,Cytotoxicity of AKR1Bs substrate (cell survival rate),HT29 cells; [7],more resistant
CC(C)C[C@@H](C=O)NC(=O)[C@H](CC(C)C)NC(=O)[C@H](CC(C)C)NC(=O)OCc1ccccc1 [MG-132] (Cbz-Leu-Leu-Leu-aldehyde),AKR1B10 protein level (western blot),AKR1B10 [5]; HT29 cells,able to increase
same,AKR1B10 protein level (western blot),AKR1B10 [5]; SW480 cells,able to increase
same,AKR1B1 protein level (western blot),AKR1B1 [6]; HT29 cells,able to increase
same,AKR1B1 protein level (western blot),AKR1B1 [6]; SW480 cells,able to increase
same,Sensitivity to 2DG after pretreatment,SW480 cells; [8],significantly more cells were killed by 2DG
same,Sensitivity to 2DG after pretreatment,HT29 cells; [8],significantly more cells were killed by 2DG
CC(=O)C=O [Methyglyoxal],"AKR1B1 activity, amount of NADPH (nmol) oxidized per min per mg of protein",AKR1B1 [2],942 nmol/min/mg
same,"AKR1B10 activity, amount of NADPH (nmol) oxidized per min per mg of protein",AKR1B10 [4],7458 nmol/min/mg
"CC(=O)N[C@@H](CS)C(=O)O [NAC, N-acetyl-cysteine]",Effect on toxicity of glyceraldehyde and diacetyl,SKOV3 cells; [9],able to protect the cells
same,Effect on toxicity of glyceraldehyde and diacetyl,HepG2 cells; [9],able to protect the cells
same,Effect on toxicity of glyceraldehyde and diacetyl,CaCo2 cells; [10],able to protect the cells
same,Effect on toxicity of glyceraldehyde and diacetyl,HCT116 cells; [10],able to protect the cells
O=Cc1ccccn1 [Pyridine-2-aldehyde],"AKR1B1 activity, amount of NADPH (nmol) oxidized per min per mg of protein",AKR1B1 [2],632 nmol/min/mg
same,"AKR1B10 activity, amount of NADPH (nmol) oxidized per min per mg of protein",AKR1B10 [4],4645 nmol/min/mg
O=Cc1ccc([N+](=O)[O-])cc1 [p-Nitrobenzaldehyde],"AKR1B1 activity, amount of NADPH (nmol) oxidized per min per mg of protein",AKR1B1 [2],760 nmol/min/mg
same,"AKR1B10 activity, amount of NADPH (nmol) oxidized per min per mg of protein",AKR1B10 [4],4480 nmol/min/mg
